For orientation: pIC50 means −log10 of the IC50, conventionally taken in molar units.

The target of series [1] is T1, rat brain AChE (Rattus norvegicus, UniProt P37136).
T1 construct: Rat brain homogenate prepared in 10 ml/g 10 mM Tris, pH 7.4, plus 1% Triton X-100 was used as a source of AChE; from tissue; host or cells: rat brain homogenate (10 mM Tris, pH 7.4, 1% Triton X-100)
The experiment in a line: biochemical.

Series [2] has as its target T2, rat serum BChE (Rattus norvegicus, UniProt Q9JKC1).
T2 construct: rat serum was the source of BChE; from tissue; host or cells: rat serum
The series can be described thus: biochemical.

The conditions of series [3]: current use of THA limited; cited from earlier work.

pIC50: −log10 of the molar value. Read-outs that look alike come from different tables or passages of the source.

T2 sequence (Q9JKC1 24-597): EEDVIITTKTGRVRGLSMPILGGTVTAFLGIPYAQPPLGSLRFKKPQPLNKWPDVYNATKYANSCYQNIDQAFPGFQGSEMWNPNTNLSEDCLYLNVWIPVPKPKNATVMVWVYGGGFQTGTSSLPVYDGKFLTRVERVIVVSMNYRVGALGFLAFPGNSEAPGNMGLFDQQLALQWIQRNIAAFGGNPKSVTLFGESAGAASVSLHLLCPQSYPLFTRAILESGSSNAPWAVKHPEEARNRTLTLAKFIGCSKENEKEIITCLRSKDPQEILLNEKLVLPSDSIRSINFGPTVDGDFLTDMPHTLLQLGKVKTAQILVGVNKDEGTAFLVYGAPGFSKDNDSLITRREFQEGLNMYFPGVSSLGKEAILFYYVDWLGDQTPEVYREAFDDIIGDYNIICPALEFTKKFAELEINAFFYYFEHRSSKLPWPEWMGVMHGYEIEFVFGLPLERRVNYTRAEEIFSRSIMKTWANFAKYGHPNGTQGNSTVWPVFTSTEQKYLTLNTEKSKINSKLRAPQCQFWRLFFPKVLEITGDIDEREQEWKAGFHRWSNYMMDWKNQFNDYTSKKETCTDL
T1 sequence (P37136 32-614): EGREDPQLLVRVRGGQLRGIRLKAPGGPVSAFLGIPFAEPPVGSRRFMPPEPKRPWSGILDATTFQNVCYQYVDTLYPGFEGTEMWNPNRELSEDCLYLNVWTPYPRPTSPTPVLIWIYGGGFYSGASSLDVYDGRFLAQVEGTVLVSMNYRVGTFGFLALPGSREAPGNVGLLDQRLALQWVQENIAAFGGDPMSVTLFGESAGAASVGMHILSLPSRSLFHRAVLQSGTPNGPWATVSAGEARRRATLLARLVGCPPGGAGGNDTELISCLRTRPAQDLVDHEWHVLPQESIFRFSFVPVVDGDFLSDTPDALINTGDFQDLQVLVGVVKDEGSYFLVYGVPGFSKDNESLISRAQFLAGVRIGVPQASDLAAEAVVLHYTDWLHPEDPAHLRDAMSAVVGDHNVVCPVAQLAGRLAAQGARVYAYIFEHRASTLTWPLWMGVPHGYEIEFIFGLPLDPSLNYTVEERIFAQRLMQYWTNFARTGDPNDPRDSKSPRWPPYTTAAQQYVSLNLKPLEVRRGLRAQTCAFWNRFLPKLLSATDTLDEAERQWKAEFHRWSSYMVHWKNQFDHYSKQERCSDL

Regarding `c1ccc2c(NCCCCCCCCCCNc3c4c(nc5ccccc35)CCCC4)c3c(nc2c1)CCCC3` [1d, 1-10-n-Decylene-bis-9,9'-amino-1,2,3,4-tetrahydroacridine], in series [1], the negative-log IC50 (pIC50) is 8.70 and the Selectivity was 180.0. Besides, in series [2], the pIC50 was 6.44.
As to `c1ccc(CCCCCCCCCCNc2c3c(nc4ccccc24)CCCC3)cc1` [2g, (10-Phenyl-decyl)-(1,2,3,4-tetrahydro-acridine-9-yl)-amine], the pIC50 in series [1] is 5.52.
In series [1], `c1ccc(CCCCCCCCCNc2c3c(nc4ccccc24)CCCC3)cc1` [2f, (9-Phenyl-nonyl)-(1,2,3,4-tetrahydro-acridine-9-yl)-amine] gave a pIC50 of 5.52 and a Selectivity of 3.3. The compound further had a pIC50 in series [2] of 5.00.
The matching figures for `c1ccc(CCCCCCNc2c3c(nc4ccccc24)CCCC3)cc1` [2c, (6-Phenyl-hexyl)-(1,2,3,4-tetrahydro-acridine-9-yl)-amine]: 6.28, 1.5 and 6.10.
`c1ccc(CCCCCCCCNc2c3c(nc4ccccc24)CCCC3)cc1` [2e, (8-Phenyl-octyl)-(1,2,3,4-tetrahydro-acridine-9-yl)-amine]: in series [1], the pIC50 is 6.66; the Selectivity is recorded as 9.1; the “potency of 2e and THA relative to compound 1a against rat brain AChE” value is “weaker”; the “potency ranking within class / chain length dependence of AChE inhibition” value was “the most potent”. Also, the “relative potency of 2e and THA against rat brain AChE” value in series [1] is on record as “nearly equipotent”. In series [2], this compound had a pIC50 of 5.70.
For the compound `c1ccc2c(NCCCCCCCCNc3c4c(nc5ccccc35)CCCC4)c3c(nc2c1)CCCC3` [1b, 1-8-n-Octylene-bis-9,9'-amino-1,2,3,4-tetrahydroacridine], the figures for the pIC50 in series [1] and in series [2] were 9.30 and 6.67, respectively. In series [1], this compound came in with a Selectivity of 432.0.
For the compound `c1ccc(CCCCCCCNc2c3c(nc4ccccc24)CCCC3)cc1` [2d, (7-Phenyl-heptyl)-(1,2,3,4-tetrahydro-acridine-9-yl)-amine], in series [1], the pIC50 is 6.44 and the Selectivity is 2.8. Also, the pIC50 in series [2] (read-out: IC50 rat serum BChE) is 6.00.
In the case of `c1ccc2c(NCCCCCCCNc3c4c(nc5ccccc35)CCCC4)c3c(nc2c1)CCCC3` [1a, 1-7-n-Heptylene-bis-9,9'-amino-1,2,3,4-tetrahydroacridine], the “times more potent than THA in inhibiting rat brain AChE” value in series [1] came to 1000 times.
In series [1], `c1ccc(CCCCCNc2c3c(nc4ccccc24)CCCC3)cc1` [2b, (5-Phenyl-pentyl)-(1,2,3,4-tetrahydro-acridine-9-yl)-amine] registered a Selectivity of 0.3. Moreover, the pIC50 in series [1] (pH 7.4, read-out: IC50 rat brain AChE) is 5.82; in series [2] it was 6.30.
Consider `c1ccc(CCCCNc2c3c(nc4ccccc24)CCCC3)cc1` [2a, (4-Phenyl-butyl)-(1,2,3,4-tetrahydro-acridine-9-yl)-amine], for which the pIC50 in series [1] was 5.82.
Regarding `Nc1c2c(nc3ccccc13)CCCC2` [THA, 9-amino-1,2,3,4-tetrahydroacridine], the hepatoxicity entry in series [3] is “serious hepatoxicity”.

The record behind these values is patent US5886007A (priority 1997, dated 1999).
